{
  "source": "patent US6780608B1",
  "about": "“Human type 3 ryanodine receptor protein and DNA molecules coding therefor” (priority 1997, dated 2004)",
  "key": {"[1]": {"test_system": "non-injected dyspedic myotubes", "test": "Intracellular calcium signal (fluo-3) in non-injected dyspedic myotubes", "format": "cell-based, mice", "settings": "1 mM caffeine, n=0 out of 20 reacted", "excerpt": "(§1) The cDNA insert was constructed from the following fragments: EcoRI(vector)/MroI(1232) obtained from IhBRR22, MroI(1232)/HindIII(2956) from IhBRR61, HindIII(2956)/BcII(3506) from IhBRR501, BcII(3506)/PmaCI(4750) from IhBRR51, PmaCI(4750)/PstI(7339) from IhBRR53, PstI(7339)/ClaI(9559) from IhBRR411, ClaI(9559)/SpeI(10569) from IhBRR79, SpeI(10569)/ApaI(11451) from IhBRR407, ApaI(11451)/EcoRI(11815) from IhBRR502, EcoRI(11815)/EcoRI(14861) from IhBRR91. The expression plasmid of the chimeric ryanodine receptor cDNA from human RyR3 and rabbit RyR2 was constructed as follows: the SalI(vector)/PmaCI(5038) fragment was rabbit RyR2 cDNA (Nakai, J. et al. FEBS Lett. 271 (1990), 169-177) and the PmaCI(4750)/NotI(vector) fragment from human RyR3-cDNA was ligated into the SalI/NotI cutting site of pCI-neo. Cultures of myotubes from RyR1-deficient (dyspedic) mice and cDNA injection are already known (Nakai, J. et al., Nature 380, (1996), 72-75). Changes in fluorescence (dimensionless random units) were measured after loading the myotubes with fluo-3 AM (Garcia, J., and Beam, K. G., J. Gen. Physiol. 103, (1994), 107-123). […] The washing solution used was normal Nager-Ringer solution of the following composition (mM): 145 NaCl, 5 KCl, 2 CaCl2, 1 MgCl2, 10 HEPES, pH 7.4 adjusted using NaOH. The temperature was 20-22° C."}, "[2]": {"test_system": "U373 cells", "test": "Intracellular calcium (aequorin luminescence) in U373 cells", "format": "cell-based, human", "settings": "for increase in intracellular calcium after addition of ryanodine: ryanodine 100 mM as printed, U373 cells, n=2 out of 4 react, 2 out of 4 do not react", "protocol": "(§2) The luminescence was determined using the method recently published (Maeda, A. et al., Anal. Biochem. 242, (1996), 58-66). To do this the cells (1×10^5 cells/vessel) were transferred into the solution of the calcium assay having the following composition (mM): 140 NaCl, 5 KCl, 1.5 MgCl2, 2.5 CaCl2, 5 glucose and 10 HEPES, pH 7.4 adjusted using NaOH, including […] of coelenterazine, the intermediate substrate of aequorine, and incubated for 6 hours at 37° C. The system for measuring luminescence consisted of the spectrofluorometer CAF-110 (Jasco) (Hakamata Y. et al., FEBS Lett. 352, (1994), 206-210), which is connected to a luminescence unit PL-03 (Jasco).\n(§3) The total amount of aequorine activity was measured, after permeabilisation of the cells with digitonin, in a final concentration of […]."}, "[3]": {"test_system": "H4 cells", "test": "Intracellular calcium (aequorin luminescence) in H4 cells", "format": "cell-based, human", "settings": "H4 neuroglyoma cells", "protocol": "as §2, §3"}, "[4]": {"test_system": "chimeric RyR from rabbit RyR2 and human RyR3", "test": "Intracellular calcium signal (fluo-3) in dyspedic myotubes injected with chimeric human RyR3 cDNA", "format": "cell-based", "settings": "1 mM caffeine, local injection; dyspedic myotubes expressing chimeric human RyR3; n=5 out of 20 reacted", "excerpt": "as §1"}},
  "note": "“Also recorded” adds a separate entry of the source.",
  "data": [
    {"molecule": "Cn1c(=O)c2c(ncn2C)n(C)c1=O", "note": "[caffeine]", "values": [
      {"measurement": "intracellular calcium signal as a reaction to caffeine", "setting": "[1]", "result": "do not react; also recorded: no reaction whatsoever"},
      {"measurement": "increase in intracellular calcium after addition of caffeine", "setting": "[2]; caffeine final concentration 10 mM, U373 astrocytoma cells, n=7, listed as Caffeine", "result": "no effect"},
      {"measurement": "increase in calcium after addition of caffeine", "setting": "[3]; caffeine final concentration 10 mM", "result": "not to caffeine"},
      {"measurement": "intracellular calcium signal as a reaction to caffeine", "setting": "[4]", "result": "reacts"}
    ]},
    {"molecule": "ryanodine", "values": [
      {"measurement": "increase in intracellular calcium after addition of ryanodine", "setting": "[2]", "result": "reacted"},
      {"measurement": "increase in intracellular calcium after addition of ryanodine", "setting": "[2]; listed as Ryanodine", "result": "triggers temporary calcium fluctuations"},
      {"measurement": "increase in calcium after addition of ryanodine", "setting": "[3]; ryanodine 100 mM [sic]", "result": "reacted"}
    ]}
  ]
}
